“And” between values parts separate entries of the source, which are not always exact repeats. Equal values may be shown once.
What was measured:
[1] = biological target: T1, Adrenergic β2 (Homo sapiens, UniProt P07550); test: off-target screen panel; type: binding; settings: Human recombinant, [^3H]CGP-12177
T1 construct: purchased Eurofins Panlabs Discovery Services (Taiwan)

[2] = system: Imidazoline I2, Central; test: off-target screen panel; type: binding; settings: Rat cerebral cortex, [^3H]Idazoxan
[3] = system: Nicotinic Acetylcholine; test: off-target screen panel; type: binding; settings: Human IMR-32 cells, [^125I]Epibatidine
[4] = biological target: T2, Adrenergic β1 (Homo sapiens, UniProt P08588); test: off-target screen panel; type: binding; settings: Human recombinant, [^125I]Cyanopindolol
T2 construct: purchased Eurofins Panlabs Discovery Services (Taiwan)

[5] = system: Phorbol Ester; test: off-target screen panel; type: binding; settings: Mouse brain, [^3H]PDBu
[6] = biological target: T3, Endothelin ETA (Homo sapiens, UniProt P25101); test: off-target screen panel; type: binding; settings: Human recombinant, [^125I]Endothelin-1
T3 construct: purchased Eurofins Panlabs Discovery Services (Taiwan)

[7] = biological target: T4, Adenosine A2A (Homo sapiens, UniProt P29274); test: off-target screen panel; type: binding; settings: Human recombinant, [^3H]CGS-21680
T4 construct: purchased Eurofins Panlabs Discovery Services (Taiwan)

[8] = biological target: T5, Serotonin (5-Hydroxytryptamine) 5-HT1A (Homo sapiens, UniProt P08908); test: off-target screen panel; type: binding; settings: Human recombinant, [^3H]8-OH-DPAT
T5 construct: purchased Eurofins Panlabs Discovery Services (Taiwan)

[9] = biological target: T6, Estrogen ERα (Homo sapiens, UniProt P03372); test: off-target screen panel; type: binding; settings: Human recombinant, [^3H]Estradiol
T6 construct: purchased Eurofins Panlabs Discovery Services (Taiwan)

[10] = biological target: T7, Muscarinic M1 (Homo sapiens, UniProt P11229); test: off-target screen panel; type: binding; settings: Human recombinant, [^3H]N-Methylscopolamine
T7 construct: purchased Eurofins Panlabs Discovery Services (Taiwan)

[11] = biological target: T8, PDE3A (Homo sapiens, UniProt Q14432); test: PDE isozyme inhibition screen panel (Eurofins Panlabs); type: biochemical; settings: 1 μM of MTP38; human recombinant; read-out: Percent inhibition
T8 construct: purchased Eurofins Panlabs Discovery Services (Taiwan)
Protocol: (§1) In vitro inhibitory effects of MTP38 on 12 PDE isozymes (PDE1A, 2A, 3A, 4B1, 5A, 6, 7A, 7B, 8A1, 9A2, 10A2, and 11A4) were determined using a commercial screen panel at Eurofins Panlabs Discovery Services (Taiwan). The enzyme source was bovine retinal rod outer segments for PDE6 or human recombinants for the others. The inhibition percentage at 1 μM or half-maximal inhibitory concentration (IC50) value was calculated. All assays were conducted in duplicate. For IC50 determination, three independent runs were performed.

[12] = biological target: T9, PDE7B (Homo sapiens, UniProt Q9NP56); test: as above; type: biochemical
T9 construct: purchased Eurofins Panlabs Discovery Services (Taiwan)
Protocol: as §1

[13] = biological target: T10, PDE1A (Homo sapiens, UniProt P54750); test: as above; type: biochemical; settings: 1 μM of MTP38; human recombinant; read-out: Percent inhibition
T10 construct: purchased Eurofins Panlabs Discovery Services (Taiwan)
Protocol: as §1

[14] = biological target: T11, PDE5A (Homo sapiens, UniProt O76074); test: as above; type: biochemical; settings: 1 μM of MTP38; human recombinant; read-out: Percent inhibition
T11 construct: purchased Eurofins Panlabs Discovery Services (Taiwan)
Protocol: as §1

[15] = biological target: T12, PDE9A2 (Homo sapiens, UniProt O76083); test: as above; type: biochemical; settings: 1 μM of MTP38; human recombinant; read-out: Percent inhibition
T12 construct: purchased Eurofins Panlabs Discovery Services (Taiwan)
Protocol: as §1

[16] = biological target: T13, PDE6 (Bos taurus, UniProt P11541+P23439); test: as above; type: biochemical; settings: 1 μM of MTP38; bovine retinal rod outer segments; read-out: Percent inhibition
T13 construct: The enzyme source was bovine retinal rod outer segments for PDE6; tissue Eurofins Panlabs Discovery Services (Taiwan); host or cells: bovine retinal rod outer segments
Protocol: as §1

[17] = biological target: T14, PDE11A4 (Homo sapiens, UniProt Q9HCR9); test: as above; type: biochemical; settings: 1 μM of MTP38; human recombinant; read-out: Percent inhibition
T14 construct: purchased Eurofins Panlabs Discovery Services (Taiwan)
Protocol: as §1

[18] = biological target: T15, PDE7A (Homo sapiens, UniProt Q13946); test: as above; type: biochemical; settings: human recombinant; geometric mean of three independent experiments
T15 construct: purchased Eurofins Panlabs Discovery Services (Taiwan)
Protocol: as §1

[19] = biological target: T16, PDE8A1 (Homo sapiens, UniProt O60658); test: as above; type: biochemical; settings: 1 μM of MTP38; human recombinant; read-out: Percent inhibition
T16 construct: purchased Eurofins Panlabs Discovery Services (Taiwan)
Protocol: as §1

[20] = biological target: T17, PDE2A (Homo sapiens, UniProt O00408); test: as above; type: biochemical; settings: human recombinant; geometric mean of three independent experiments
T17 construct: purchased Eurofins Panlabs Discovery Services (Taiwan)
Protocol: as §1

[21] = biological target: T18, Transporter, Norepinephrine (NET) (Homo sapiens, UniProt P23975); test: off-target screen panel; type: binding; settings: Human recombinant, [^125I]RTI-55
T18 construct: purchased Eurofins Panlabs Discovery Services (Taiwan)

[22] = biological target: T19, Muscarinic M3 (Homo sapiens, UniProt P20309); test: off-target screen panel; type: binding; settings: Human recombinant, [^3H]N-Methylscopolamine
T19 construct: purchased Eurofins Panlabs Discovery Services (Taiwan)

[23] = system: PDE7; test: PET imaging in rats with [^11C]MTP38; type: in vivo, Wistar rats; settings: unlabeled MTP38 0.5 mg/kg intravenously 2 min before radioligand
Protocol: Each rat was scanned multiple times with a shortest interval of 1 month. Rats were anesthetized with isoflurane (3% for induction and 2% for maintenance) throughout the experiment. The tail vein was cannulated for radioligand injection. Body temperature was maintained at around 37 °C using a heating pad. The head of the rat was fixed at the center of the field of view of an animal PET scanner (microPET Focus220, Siemens Medical Solutions, Malvern, USA). A 90-min list-mode data acquisition was started simultaneously with intravenous administration of [^11C]MTP38. The list-mode data were sorted into 3D sinograms, which were then Fourier-rebinned into 2D sinograms (frames: 10 s × 6, 30 s × 8, 1 min × 5, 2 min × 10, and 5 min × 12). The sinograms were reconstructed with a filtered back-projection algorithm using a Hanning filter with a cut-off at the Nyquist frequency (0.5 mm^−1).
Along with baseline scans, we conducted blockade PET experiments according to the following pretreatment protocols: (1) unlabeled MTP38 (0.5 mg/kg) was administered intravenously at 2 min before radioligand injection, and (2) MTP-X (100 mg/kg) was administered orally at 1 h before radioligand injection.
PET images were co-registered manually onto the magnetic resonance (MR) template image. Details of co-registration were described elsewhere. Regions of interest (ROIs) were placed on the striatum as a target region and on the cerebellum (gray matter) as a reference region according to the expression of PDE7B mRNA in the rat brain [6], and time-activity curves (TACs) were generated for each ROI. Radioactivity in the brain was normalized with injected radioactivity and body weight, and expressed as standardized uptake value (SUV). Then the SUV ratio between the striatum and cerebellum was obtained to estimate the radioligand binding in the target region in baseline and blockade experiments.

[24] = Solubility; type: physicochemical
[25] = biological target: T20, Neuropeptide Y Y1 (Homo sapiens, UniProt P25929); test: off-target screen panel; type: binding; settings: Human SK-N-MC cells, [^125I]Peptide YY
T20 construct: purchased Eurofins Panlabs Discovery Services (Taiwan)

[26] = biological target: T21, Androgen (Testosterone) (Homo sapiens, UniProt P10275); test: off-target screen panel; type: binding; settings: Human LNCaP clone, [^3H]Methyltrienolone
T21 construct: purchased Eurofins Panlabs Discovery Services (Taiwan)
T21 sequence (P10275 whole entry): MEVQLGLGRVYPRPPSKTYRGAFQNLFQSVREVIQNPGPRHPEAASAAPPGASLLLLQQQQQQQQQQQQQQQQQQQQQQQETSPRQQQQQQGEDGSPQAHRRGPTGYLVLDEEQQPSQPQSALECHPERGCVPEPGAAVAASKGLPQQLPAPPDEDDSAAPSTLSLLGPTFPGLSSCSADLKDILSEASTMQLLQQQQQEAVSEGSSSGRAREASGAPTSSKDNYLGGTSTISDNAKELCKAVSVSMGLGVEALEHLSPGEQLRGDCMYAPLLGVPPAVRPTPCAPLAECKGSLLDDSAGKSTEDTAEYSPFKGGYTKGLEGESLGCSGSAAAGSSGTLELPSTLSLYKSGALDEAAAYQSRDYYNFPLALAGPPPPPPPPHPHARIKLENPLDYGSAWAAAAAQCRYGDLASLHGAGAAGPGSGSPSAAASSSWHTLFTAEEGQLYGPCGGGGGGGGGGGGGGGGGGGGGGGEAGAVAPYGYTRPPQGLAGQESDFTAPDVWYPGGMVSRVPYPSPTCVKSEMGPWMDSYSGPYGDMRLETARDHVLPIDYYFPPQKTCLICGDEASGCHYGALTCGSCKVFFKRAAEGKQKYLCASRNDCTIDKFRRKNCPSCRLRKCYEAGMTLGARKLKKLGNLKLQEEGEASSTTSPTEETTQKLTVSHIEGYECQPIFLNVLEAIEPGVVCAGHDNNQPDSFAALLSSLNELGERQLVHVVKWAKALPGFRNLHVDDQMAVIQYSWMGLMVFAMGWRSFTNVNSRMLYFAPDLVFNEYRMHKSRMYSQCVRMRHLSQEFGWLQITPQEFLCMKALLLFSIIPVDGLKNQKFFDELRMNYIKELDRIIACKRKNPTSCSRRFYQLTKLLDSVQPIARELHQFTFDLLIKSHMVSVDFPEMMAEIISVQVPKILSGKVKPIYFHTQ

T9 sequence (Q9NP56 whole entry): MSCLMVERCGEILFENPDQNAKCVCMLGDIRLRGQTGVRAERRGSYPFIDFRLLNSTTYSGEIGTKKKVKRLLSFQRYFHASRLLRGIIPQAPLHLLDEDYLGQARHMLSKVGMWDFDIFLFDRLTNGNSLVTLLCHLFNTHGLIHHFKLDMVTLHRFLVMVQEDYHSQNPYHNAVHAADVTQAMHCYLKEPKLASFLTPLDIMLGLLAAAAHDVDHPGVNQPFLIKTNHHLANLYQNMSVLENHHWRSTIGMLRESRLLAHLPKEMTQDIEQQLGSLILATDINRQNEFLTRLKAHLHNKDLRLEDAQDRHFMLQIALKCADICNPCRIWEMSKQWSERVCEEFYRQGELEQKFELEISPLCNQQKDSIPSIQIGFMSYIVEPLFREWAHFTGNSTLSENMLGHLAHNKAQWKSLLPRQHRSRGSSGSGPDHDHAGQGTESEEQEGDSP
T17 sequence (O00408 whole entry): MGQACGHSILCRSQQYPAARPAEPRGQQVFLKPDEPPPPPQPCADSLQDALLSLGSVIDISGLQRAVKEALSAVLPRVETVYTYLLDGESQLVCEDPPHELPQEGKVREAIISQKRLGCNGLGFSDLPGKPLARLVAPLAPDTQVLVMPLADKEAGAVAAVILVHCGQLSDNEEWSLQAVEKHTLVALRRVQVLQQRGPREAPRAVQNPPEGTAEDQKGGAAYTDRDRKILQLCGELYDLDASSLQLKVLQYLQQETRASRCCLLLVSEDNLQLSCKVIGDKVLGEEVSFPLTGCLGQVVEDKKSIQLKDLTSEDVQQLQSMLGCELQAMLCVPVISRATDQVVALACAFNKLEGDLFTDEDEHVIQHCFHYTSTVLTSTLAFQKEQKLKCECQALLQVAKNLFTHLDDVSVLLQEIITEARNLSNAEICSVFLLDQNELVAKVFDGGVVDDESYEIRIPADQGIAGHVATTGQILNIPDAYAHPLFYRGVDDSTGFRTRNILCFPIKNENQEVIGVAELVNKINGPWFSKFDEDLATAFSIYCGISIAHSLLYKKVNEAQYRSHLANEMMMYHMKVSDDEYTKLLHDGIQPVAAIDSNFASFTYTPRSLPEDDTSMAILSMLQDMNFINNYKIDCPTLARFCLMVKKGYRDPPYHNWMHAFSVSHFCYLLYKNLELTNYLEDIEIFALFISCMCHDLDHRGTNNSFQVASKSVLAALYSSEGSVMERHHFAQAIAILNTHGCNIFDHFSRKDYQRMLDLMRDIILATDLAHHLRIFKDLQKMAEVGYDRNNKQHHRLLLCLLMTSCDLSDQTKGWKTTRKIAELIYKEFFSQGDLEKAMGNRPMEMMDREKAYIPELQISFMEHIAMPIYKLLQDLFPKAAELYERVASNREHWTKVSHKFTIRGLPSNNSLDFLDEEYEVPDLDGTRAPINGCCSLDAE
T8 sequence (Q14432 whole entry): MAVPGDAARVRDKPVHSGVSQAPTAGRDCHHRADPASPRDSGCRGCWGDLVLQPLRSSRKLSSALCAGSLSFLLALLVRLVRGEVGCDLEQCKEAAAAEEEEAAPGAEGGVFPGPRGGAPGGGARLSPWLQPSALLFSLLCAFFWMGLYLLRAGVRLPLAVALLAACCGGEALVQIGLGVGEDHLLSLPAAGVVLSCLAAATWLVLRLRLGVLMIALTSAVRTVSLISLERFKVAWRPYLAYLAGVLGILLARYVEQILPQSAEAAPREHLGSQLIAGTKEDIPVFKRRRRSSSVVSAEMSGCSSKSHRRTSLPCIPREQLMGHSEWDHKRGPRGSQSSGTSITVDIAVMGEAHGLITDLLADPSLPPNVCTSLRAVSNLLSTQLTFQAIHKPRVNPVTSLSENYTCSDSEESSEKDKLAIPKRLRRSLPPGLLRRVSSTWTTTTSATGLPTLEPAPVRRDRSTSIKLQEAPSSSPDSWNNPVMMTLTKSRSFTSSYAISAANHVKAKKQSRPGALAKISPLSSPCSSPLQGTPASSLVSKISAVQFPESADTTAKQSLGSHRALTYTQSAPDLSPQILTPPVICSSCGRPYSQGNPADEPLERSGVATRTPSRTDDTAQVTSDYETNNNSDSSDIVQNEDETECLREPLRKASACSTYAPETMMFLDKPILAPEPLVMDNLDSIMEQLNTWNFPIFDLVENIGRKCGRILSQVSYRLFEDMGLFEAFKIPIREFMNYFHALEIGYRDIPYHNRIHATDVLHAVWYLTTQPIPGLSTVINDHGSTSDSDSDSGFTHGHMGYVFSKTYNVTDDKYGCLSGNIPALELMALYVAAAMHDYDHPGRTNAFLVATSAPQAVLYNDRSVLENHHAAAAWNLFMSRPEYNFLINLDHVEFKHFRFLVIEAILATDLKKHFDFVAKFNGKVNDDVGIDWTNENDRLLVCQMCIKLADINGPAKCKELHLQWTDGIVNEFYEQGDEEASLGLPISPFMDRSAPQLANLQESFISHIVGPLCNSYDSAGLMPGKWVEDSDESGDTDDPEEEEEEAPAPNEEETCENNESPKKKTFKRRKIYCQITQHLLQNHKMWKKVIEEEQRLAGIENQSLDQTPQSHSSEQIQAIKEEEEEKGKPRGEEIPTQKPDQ
T19 sequence (P20309 whole entry): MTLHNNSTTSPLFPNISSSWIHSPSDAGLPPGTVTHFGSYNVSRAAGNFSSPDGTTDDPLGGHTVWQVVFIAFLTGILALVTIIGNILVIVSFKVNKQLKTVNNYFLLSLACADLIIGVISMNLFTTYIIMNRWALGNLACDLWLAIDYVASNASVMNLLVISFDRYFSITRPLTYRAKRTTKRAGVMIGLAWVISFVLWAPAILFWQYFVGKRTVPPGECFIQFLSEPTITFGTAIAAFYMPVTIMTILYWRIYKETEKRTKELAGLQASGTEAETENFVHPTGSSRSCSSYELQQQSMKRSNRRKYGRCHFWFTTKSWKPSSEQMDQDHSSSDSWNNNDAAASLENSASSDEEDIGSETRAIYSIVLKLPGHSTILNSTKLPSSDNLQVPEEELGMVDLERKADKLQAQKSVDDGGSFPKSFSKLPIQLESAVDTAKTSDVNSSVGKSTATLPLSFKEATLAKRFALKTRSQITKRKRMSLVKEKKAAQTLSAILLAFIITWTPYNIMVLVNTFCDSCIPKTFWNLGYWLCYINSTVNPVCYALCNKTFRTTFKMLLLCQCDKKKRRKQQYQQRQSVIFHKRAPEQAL
T3 sequence (P25101 21-427): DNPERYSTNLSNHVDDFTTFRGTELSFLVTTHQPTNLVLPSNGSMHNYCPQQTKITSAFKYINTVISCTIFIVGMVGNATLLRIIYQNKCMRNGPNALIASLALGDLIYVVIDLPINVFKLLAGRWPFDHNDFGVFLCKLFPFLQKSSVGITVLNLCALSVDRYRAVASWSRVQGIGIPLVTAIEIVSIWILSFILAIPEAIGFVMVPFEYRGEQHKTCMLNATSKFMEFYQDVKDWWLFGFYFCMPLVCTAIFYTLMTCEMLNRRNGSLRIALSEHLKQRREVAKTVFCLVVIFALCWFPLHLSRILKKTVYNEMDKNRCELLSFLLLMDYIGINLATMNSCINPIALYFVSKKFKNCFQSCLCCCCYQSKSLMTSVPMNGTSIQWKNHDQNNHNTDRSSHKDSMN
T7 sequence (P11229 whole entry): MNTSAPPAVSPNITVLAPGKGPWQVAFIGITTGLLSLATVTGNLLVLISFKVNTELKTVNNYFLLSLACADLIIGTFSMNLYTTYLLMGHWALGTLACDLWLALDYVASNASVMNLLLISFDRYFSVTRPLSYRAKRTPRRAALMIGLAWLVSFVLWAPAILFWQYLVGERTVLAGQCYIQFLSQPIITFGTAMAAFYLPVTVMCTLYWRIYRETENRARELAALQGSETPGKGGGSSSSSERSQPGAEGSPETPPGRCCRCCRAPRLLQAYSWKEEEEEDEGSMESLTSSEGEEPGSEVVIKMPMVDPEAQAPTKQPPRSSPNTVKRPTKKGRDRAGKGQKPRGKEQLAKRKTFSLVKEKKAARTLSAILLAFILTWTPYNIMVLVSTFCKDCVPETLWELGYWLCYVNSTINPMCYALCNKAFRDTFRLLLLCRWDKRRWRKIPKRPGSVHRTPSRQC

SMILES: C[C@@H]1CC[C@H](C)N(c2nnc3c(N)ncc(C#N)n23)C1 (relative stereo) [MTP38, 8-amino-3-(2S*,5R*-dimethyl-1-piperidyl)-[1,2,4]triazolo[4,3-a]pyrazine-5-carbonitrile]
- inhibition at 1 µM [1]: -14%
- Inhibition (%) at 1 μM [2]: -8%
- Inhibition (%) at 1 μM [3]: -8%
- inhibition at 1 µM [4]: -2%
- Inhibition (%) at 1 μM [5]: -7%
- inhibition at 1 µM [6]: -10%
- inhibition at 1 µM [7]: 4%
- inhibition at 1 µM [8]: -5%
- inhibition at 1 µM [9]: -1%
- inhibition at 1 µM [10]: -20%
- inhibition at 1 µM [11]: < 50%
- Ki ([12]; from IC50 1.21 nM, [S] 100 nM, Km 30–70 nM, read-out: Ki estimated by Cheng-Prusoff equation): 0.28 to 0.5 nM
- IC50 ([12]; human recombinant, geometric mean of three independent experiments): 1.21 nM
- inhibition at 1 µM [13]: < 50%
- inhibition at 1 µM [14]: < 50%
- inhibition at 1 µM [15]: < 50%
- inhibition at 1 µM [16]: < 50%
- inhibition at 1 µM [17]: < 50%
- IC50 [18]: 9.81 nM
- inhibition at 1 µM [19]: < 50%
- IC50 [20]: > 100 nM and 114 nM
- inhibition at 1 µM [21]: 6%
- inhibition at 1 µM [22]: -21%
- striatum-to-cerebellum ratio of SUV of [^11C]MTP38 after pretreatment [23]: around 1.1
- solubility [24]: low solubility
- inhibition at 1 µM [25]: -13%
- inhibition at 1 µM [26]: 1%

From PMC8426238, “Synthesis and preclinical evaluation of [^11C]MTP38 as a novel PET ligand for phosphodiesterase 7 in the brain” (European Journal of Nuclear Medicine and Molecular Imaging, 2021)
